Results as given in ChEMBL document CHEMBL1201862, “PubChem BioAssay data set” (2004).
Activity calls are given as the source filed them.

Assays:
[1] = biological target: Cytochrome P450 2D6 (Homo sapiens, UniProt P10635);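 note: CYP2D6 member of a cytochrome P450 panel assay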
[2] = HEp-2 cell cytotoxicity, dose response, cytotoxicity control for RSV inhibitor project, HTS (AID 2410); assay type: functional; conditions: human respiratory syncytial virus
[3] = biological target: Cytochrome P450 2C19 (Homo sapiens, UniProt P33261); assay: Cytochrome panel assay with activity outcomes. Panel member name: p450-cyp2c19 Compounds with AC50 equal or less than 10 uM are considered active; assay type: functional; conditions: read-out: AC50
Cytochrome P450 2C19, sequence (P33261 whole entry): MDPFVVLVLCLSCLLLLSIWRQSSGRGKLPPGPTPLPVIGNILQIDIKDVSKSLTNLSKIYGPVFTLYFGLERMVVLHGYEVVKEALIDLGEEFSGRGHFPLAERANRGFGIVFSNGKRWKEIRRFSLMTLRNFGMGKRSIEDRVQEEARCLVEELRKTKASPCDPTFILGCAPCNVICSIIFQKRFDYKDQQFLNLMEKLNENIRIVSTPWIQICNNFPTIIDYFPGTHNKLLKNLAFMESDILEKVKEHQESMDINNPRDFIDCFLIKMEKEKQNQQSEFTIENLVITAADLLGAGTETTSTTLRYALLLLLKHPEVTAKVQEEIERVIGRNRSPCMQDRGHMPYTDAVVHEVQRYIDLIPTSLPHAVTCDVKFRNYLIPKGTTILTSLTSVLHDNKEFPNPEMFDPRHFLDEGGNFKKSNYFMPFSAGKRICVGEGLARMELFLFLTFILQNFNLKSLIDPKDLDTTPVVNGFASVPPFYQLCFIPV

[4] = biological target: Cytochrome P450 2C9 (Homo sapiens, UniProt P11712)
Cytochrome P450 2C9, sequence (P11712 whole entry): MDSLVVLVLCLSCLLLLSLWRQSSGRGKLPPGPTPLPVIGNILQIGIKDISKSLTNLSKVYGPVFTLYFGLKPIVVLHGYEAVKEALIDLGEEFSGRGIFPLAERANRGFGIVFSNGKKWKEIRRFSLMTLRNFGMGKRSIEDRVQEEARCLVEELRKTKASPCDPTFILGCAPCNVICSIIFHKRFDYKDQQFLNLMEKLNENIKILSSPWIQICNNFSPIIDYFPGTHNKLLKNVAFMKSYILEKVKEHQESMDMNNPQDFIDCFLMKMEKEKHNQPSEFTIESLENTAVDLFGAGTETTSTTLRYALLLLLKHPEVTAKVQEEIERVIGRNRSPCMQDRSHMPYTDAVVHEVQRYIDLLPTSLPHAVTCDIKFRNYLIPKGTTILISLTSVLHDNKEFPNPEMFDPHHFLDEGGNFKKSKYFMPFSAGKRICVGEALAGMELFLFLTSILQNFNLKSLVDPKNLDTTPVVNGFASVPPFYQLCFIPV

[5] = Luminescence Cell-Based Dose Confirmation HTS to Identify Inhibitors of Platelet Dense Granule Release. [Related pubchem assays: 1663 (Primary HTS), 1678 (Summary of Project)]; assay type: functional
[6] = biological target: Luciferin 4-monooxygenase (Photinus pyralis, UniProt P08659); assay: firefly luciferase enzyme inhibitors, dose response, biochemical, luminescence (AID 1891)
Luciferin 4-monooxygenase, sequence (P08659 whole entry): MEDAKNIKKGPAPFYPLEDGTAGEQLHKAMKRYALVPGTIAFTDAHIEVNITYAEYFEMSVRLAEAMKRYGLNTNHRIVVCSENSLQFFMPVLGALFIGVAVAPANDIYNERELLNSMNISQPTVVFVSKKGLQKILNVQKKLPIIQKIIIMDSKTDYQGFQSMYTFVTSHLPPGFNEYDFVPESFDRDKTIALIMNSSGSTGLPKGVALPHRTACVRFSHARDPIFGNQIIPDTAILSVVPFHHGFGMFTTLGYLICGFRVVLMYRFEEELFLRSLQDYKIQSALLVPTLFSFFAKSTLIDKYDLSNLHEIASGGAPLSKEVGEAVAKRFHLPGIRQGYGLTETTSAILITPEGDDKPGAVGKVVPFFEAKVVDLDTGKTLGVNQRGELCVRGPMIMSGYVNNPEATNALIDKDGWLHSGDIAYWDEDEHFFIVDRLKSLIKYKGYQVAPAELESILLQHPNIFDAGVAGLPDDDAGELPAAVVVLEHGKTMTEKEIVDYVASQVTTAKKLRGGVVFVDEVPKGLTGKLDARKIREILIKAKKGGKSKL

[7] = test system: Streptococcus sp. 'group A'; assay: growth inhibition of control SK(-) GAS strain, dose response, counter-screen for streptokinase expression inhibitor project, luminescence, kanamycin, BacTiterGlo, confirmation (AID 1900); assay type: functional, organism-based
[8] = biological target: T1, Streptokinase A (Streptococcus pyogenes serotype M1, UniProt P10520); assay: S. pyogenes streptokinase expression inhibitors, potency, dose response, plasminogen activation absorbance, OD405 (AID 1914); assay type: functional, Streptococcus pyogenes M1 GAS;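 note: secreted streptokinase activity via plasminogen activation per viability signal from cell pellet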
T1 sequence (P10520 whole entry): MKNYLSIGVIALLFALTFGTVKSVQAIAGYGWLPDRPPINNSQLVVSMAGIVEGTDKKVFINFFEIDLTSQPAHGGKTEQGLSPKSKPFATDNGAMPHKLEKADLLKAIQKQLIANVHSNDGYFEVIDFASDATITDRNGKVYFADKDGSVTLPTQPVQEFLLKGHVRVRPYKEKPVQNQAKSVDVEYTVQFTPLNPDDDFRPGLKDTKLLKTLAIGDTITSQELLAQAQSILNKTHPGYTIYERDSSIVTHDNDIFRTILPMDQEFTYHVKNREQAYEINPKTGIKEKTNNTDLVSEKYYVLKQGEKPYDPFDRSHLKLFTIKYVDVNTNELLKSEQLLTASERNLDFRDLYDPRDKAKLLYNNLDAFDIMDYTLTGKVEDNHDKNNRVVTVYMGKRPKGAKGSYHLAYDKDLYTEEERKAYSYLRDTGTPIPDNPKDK

[9] = test system: Streptococcus; assay: Group A Streptococcus viability loss, dose response, counter-screen for streptokinase expression inhibitor project, luminescence, BacTiterGlo (AID 1915); assay type: functional, organism-based;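 note: potency for reduction of bacterial viability or growth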
[10] = Luminescence Cell-Based Dose Response HTS to Identify Inhibitors of 5'UTR Stem-Loop Driven Prion Protein mRNA Translation in H4 Neuroglioblastoma Cells. [Related pubchem assays: 1827 (Project Summary), 1813 (Primary HTS)]; assay type: functional
[11] = biological target: T2, Replicative DNA helicase DnaB (Mycobacterium tuberculosis, UniProt P9WMR3); assay: DnaB intein splicing inhibitors, dose response, biochemical, cell-free fluorescence (AID 449749); assay type: functional
T2 sequence (P9WMR3 whole entry): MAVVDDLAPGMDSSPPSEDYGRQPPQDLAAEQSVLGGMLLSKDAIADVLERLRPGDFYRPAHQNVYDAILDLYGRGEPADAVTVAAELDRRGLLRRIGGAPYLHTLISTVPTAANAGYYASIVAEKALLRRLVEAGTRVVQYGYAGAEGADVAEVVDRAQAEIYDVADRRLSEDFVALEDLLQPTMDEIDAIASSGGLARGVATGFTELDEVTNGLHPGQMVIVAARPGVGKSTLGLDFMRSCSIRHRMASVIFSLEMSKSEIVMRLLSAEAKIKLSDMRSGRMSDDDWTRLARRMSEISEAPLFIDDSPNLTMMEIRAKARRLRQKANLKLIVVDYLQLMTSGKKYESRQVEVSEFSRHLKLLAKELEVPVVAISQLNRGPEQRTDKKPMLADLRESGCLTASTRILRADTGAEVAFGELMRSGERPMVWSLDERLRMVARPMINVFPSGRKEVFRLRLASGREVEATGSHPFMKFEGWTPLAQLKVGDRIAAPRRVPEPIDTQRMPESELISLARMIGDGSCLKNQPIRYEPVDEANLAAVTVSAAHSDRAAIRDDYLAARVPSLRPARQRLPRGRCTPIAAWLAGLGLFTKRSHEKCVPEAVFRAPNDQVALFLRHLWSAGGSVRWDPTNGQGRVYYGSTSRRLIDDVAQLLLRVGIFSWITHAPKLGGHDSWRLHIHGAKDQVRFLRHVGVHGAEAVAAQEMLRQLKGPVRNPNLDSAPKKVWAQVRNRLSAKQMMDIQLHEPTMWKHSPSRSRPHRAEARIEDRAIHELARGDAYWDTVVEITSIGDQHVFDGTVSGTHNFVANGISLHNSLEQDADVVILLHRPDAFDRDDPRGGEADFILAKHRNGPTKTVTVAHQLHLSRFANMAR

[12] = inhibitors of firefly luciferase expression or activity, dose response, H4 neuroglioma cells, luminescence (AID 1990); assay type: functional, cell-based
[13] = biological target: T3, Protein RecA (Mycobacterium tuberculosis, UniProt P9WHJ3); assay: Fluorescence Cell-Free Homogeneous Dose Retest to Identify Inhibitors of RecA-Intein Splicing Activity. [Related pubchem assays (depositor defined):AID2097, AID2223, AID489010, AID492950]; assay type: functional
T3 sequence (P9WHJ3 whole entry): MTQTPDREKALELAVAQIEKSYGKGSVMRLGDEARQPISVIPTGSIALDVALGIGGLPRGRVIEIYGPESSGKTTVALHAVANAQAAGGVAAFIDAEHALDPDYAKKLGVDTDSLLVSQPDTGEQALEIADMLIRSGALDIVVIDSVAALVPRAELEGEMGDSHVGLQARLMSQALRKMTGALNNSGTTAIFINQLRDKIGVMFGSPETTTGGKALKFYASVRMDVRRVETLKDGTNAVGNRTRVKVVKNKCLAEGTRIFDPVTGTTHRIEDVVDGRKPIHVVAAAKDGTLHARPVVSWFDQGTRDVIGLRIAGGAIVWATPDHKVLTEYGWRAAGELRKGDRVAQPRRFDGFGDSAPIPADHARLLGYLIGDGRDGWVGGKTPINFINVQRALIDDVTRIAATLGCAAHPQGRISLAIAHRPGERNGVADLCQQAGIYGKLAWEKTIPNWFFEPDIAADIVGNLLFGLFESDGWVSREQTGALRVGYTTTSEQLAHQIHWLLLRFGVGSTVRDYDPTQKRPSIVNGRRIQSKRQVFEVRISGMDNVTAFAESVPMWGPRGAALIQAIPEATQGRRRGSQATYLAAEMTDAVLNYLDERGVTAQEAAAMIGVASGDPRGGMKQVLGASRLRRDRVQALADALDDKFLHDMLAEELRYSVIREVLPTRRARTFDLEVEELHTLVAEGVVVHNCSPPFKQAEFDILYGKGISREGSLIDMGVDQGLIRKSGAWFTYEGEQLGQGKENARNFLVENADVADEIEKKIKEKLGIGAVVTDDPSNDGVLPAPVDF

[14] = inhibitors of SNCA 5'UTR-driven reporter translation, confirmation, H4 neuroglioma cells, luminescence (AID 1988); assay type: functional, cell-based
[15] = biological target: FAD-linked sulfhydryl oxidase ALR (Homo sapiens, UniProt P55789); assay: inhibitors of human ALR sulfhydryl oxidase, dose response, biochemical, H2O2 detection, luminescence, cherry-pick (AID 493248)
FAD-linked sulfhydryl oxidase ALR, sequence (P55789 whole entry): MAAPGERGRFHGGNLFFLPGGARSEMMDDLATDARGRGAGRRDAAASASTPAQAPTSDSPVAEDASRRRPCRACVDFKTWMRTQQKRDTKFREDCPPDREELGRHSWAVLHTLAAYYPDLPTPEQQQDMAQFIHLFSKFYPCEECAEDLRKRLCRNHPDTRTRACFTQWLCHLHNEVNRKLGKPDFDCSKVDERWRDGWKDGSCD

[16] = biological target: Paired box protein Pax-8 (Homo sapiens, UniProt Q06710); assay: inhibitors of PAX8-driven TPO luciferase reporter, dose response, RMG-I cells, cherry-pick (AID 687027); assay type: functional, cell-based;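 note: luciferase reporter driven by Pax8 target thyroperoxidase promoter measured by SteadyGlo luminescence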
Paired box protein Pax-8, sequence (Q06710 whole entry): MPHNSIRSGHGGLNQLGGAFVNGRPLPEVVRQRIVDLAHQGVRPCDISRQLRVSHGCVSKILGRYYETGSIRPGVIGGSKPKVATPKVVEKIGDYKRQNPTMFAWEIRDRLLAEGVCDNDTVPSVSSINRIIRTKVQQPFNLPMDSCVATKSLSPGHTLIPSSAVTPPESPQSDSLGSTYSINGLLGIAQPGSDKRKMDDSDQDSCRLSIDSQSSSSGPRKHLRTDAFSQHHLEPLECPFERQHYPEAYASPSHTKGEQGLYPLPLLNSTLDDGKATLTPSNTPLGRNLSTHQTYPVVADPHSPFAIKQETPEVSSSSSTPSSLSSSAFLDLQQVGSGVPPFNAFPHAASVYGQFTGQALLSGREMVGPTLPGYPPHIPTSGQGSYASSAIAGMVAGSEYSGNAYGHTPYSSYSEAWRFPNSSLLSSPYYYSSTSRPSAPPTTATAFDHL

[17] = biological target: T4, Zinc finger protein mex-5 (Caenorhabditis elegans, UniProt Q9XUB2); assay: MEX-5/TCR-2 RNA interaction inhibitors, dose response, biochemical, C. elegans, fluorescence polarization (AID 1960)
T4 sequence (Q9XUB2 whole entry): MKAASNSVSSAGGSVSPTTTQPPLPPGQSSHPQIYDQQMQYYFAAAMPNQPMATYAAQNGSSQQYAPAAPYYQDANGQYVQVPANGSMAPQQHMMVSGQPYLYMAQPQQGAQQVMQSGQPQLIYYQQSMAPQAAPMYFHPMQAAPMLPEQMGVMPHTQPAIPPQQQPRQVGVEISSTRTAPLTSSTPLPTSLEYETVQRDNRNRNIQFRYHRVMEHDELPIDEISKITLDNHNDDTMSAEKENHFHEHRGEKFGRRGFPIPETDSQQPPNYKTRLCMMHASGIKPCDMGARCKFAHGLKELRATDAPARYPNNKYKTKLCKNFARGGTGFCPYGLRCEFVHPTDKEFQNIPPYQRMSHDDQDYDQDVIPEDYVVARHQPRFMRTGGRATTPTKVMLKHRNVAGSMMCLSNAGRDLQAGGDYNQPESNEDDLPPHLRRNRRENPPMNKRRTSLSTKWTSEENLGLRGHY

[18] = biological target: T5, RNA-binding protein pos-1 (Caenorhabditis elegans, UniProt G5EF15); assay: inhibitors of POS-1/mex-3 RNA binding, dose response, biochemical, fluorescence polarization (AID 1964);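 note: purified POS-1 fused to maltose binding protein made in E. coli; potency of compounds blocking POS-1 binding to fluorescent RNA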
T5 sequence (G5EF15 whole entry): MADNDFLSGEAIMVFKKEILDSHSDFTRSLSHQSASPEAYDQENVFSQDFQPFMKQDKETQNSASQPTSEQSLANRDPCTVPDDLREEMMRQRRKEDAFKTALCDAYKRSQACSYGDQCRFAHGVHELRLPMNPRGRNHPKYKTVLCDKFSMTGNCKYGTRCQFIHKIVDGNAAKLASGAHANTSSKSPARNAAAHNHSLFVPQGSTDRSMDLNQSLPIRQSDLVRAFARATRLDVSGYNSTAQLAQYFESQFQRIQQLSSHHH

Cytochrome P450 2D6, sequence (P10635 whole entry): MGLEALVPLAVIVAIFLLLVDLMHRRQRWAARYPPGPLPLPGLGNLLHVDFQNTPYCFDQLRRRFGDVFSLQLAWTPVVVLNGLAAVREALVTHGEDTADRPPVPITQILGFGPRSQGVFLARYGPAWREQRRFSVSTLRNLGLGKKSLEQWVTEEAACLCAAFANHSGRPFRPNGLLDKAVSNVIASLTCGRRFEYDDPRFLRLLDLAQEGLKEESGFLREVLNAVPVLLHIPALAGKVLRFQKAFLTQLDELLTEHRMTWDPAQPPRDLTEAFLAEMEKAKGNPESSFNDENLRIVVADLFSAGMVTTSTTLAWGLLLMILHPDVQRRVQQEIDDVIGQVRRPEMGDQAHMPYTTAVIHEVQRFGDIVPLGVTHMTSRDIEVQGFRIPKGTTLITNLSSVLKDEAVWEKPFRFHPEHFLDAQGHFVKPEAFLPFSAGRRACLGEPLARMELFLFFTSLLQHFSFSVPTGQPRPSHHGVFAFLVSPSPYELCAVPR

Compound: Cc1ccc(/C=C/C(=O)c2nc3ccccc3[nH]2)cc1
- AC50 [1]: 28.2 µM (inconclusive)
- CC50 [2]: 46.1 µM (active)
- AC50 [3]: 15.8 nM (inconclusive)
- AC50 [4]: 7.94 µM (inconclusive)

Compound: N=C(NOC(=O)c1ccc(Cl)cc1)c1ccccn1
- CC50 [2]: 16.4 µM (active)
- EC50 [5]: 7.38 µM (active)
- EC50 [6]: 1.53 µM (active)

Compound: CCn1c(=O)c(C(=O)NNC(=O)Cc2ccccc2)c(O)c2ccccc21
- EC50 [7]: 9.03 µM (active)
- EC50 [8]: > 150 µM (not active)
- EC50 [9]: > 150 µM (not active)

Compound: CC(C)c1ccc(NC(=O)C2CCCN(S(=O)(=O)c3ccc4c(c3)C(C)(C)C(=O)N4C)C2)cc1 (centres undefined)
- CC50 [2]: 17.6 µM (active)

Compound: Cc1cc(C)c2nc(SCCc3ccccc3)nc(C)c2c1
- EC50 [7]: 33.4 µM (active)
- EC50 [8]: 12.5 µM (active)
- EC50 [9]: > 150 µM (not active)

Compound: Cc1ccc2c(c1)-c1c(ssc1=S)C(C)(C)N2C(=O)CSc1nncn1C
- EC50 [10]: > 120 µM (not active)
- AC50 [11]: 6.63 µM (active)
- EC50 [12]: 46.1 µM (active)
- EC50 [13]: 9.47 µM (active)
- EC50 [14]: > 120 µM (not active)

Compound: Cc1noc(C)c1C(=O)N1CCCC(Nc2ccc(C(C)C)cc2)C1 (centres undefined)
- AC50 [15]: 7.67 µM (active)

Compound: Cc1ccc(NCc2nnc3n2CCCCC3)c(C)c1
- AC50 [15]: 1.35 µM (active)

Compound: COc1ccc(S(=O)(=O)Nc2ccc3c(c2)C(=O)N([C@H](C)CO)C[C@@H](C)[C@H](CN(C)C(=O)Nc2ccc(C(F)(F)F)cc2)OCCCC[C@H](C)O3)cc1
- AC50 [16]: 7.32 µM (active)

Compound: COc1ccc(C(=O)N/N=C/c2ccc(OC)c(CN3CCN(c4ccc(F)cc4)CC3)c2)cc1
- AC50 [16]: 35.8 µM (active)

Compound: COc1ccc(-c2cc(C(=O)N/N=C(\C)c3ccco3)c3ccccc3n2)c(OC)c1
- EC50 [17]: > 300 µM (not active)
- EC50 [18]: > 300 µM (not active)
- EC50 [7]: > 150 µM (not active)
- EC50 [8]: > 150 µM (not active)
- EC50 [9]: > 150 µM (not active)

Compound: ClCc1csc(-c2ccc(Cl)cc2)n1
- AC50 [15]: 4.37 µM (active)
